The target in data set [1] is T1, GST-JAK2(808-1132) (Homo sapiens, UniProt O60674).
T1 construct: GST-JAK2(808-1132) is purchased from Invitrogen; purchased Invitrogen (Carlsbad, USA) #4288
Briefly: EPK JAK/TYK-kinase family profiling assay (Caliper mobility shift), JAK2. As to conditions: Caliper mobility shift assay of Example 187, 20 μM ATP, read-out: IC50 with Test in present Example. The format is biochemical. An outline of the steps:
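Caliper mobility-shift assay with the GST-tagged kinase domain and a fluorescently labeled peptide substrate plus ATP, run 60 min at 30° C and then stopped with EDTA buffer. Turnover was taken as the substrate/product ratio. Compounds were tested at eight final concentrations from 10 to 0.003 μM.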

Data set [2] concerns the target T2, GST-JAK2 (Homo sapiens, UniProt O60674).
T2 construct: the amino acid domain ASP751-VAL1129 of the JAK2 protein
Briefly: JAK2 kinase assay of the general description (alternative method, flash plate). The format is biochemical. The conditions noted are these: 1.0 μM ATP, read-out: IC50 with test in general description (named “alternative method to that given in the examples”) (“flash plate”).

Bounds are passed on as bounds.

T1 sequence (O60674 808-1132): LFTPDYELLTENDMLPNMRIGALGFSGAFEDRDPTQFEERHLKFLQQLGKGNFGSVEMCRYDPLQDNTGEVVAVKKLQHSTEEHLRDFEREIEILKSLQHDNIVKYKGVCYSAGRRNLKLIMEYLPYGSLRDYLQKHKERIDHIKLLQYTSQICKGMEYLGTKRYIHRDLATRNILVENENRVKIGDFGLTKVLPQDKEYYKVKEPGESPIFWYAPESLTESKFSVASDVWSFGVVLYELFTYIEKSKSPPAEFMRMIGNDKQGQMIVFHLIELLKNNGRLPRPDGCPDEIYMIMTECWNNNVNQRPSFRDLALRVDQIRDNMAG
T2 sequence (O60674 751-1129): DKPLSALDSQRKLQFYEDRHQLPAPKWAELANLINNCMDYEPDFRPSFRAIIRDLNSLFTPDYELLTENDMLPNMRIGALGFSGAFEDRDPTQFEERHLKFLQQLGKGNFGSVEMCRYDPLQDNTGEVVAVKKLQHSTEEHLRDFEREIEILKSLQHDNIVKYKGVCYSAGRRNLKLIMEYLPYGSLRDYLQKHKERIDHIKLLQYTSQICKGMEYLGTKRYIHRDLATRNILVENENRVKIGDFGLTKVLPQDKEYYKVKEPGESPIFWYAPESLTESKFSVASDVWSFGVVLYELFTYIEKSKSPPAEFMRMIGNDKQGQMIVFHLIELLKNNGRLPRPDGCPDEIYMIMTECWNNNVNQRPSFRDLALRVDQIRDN

In general, IC50 refers to the concentration that gives 50% inhibition. For orientation: melting point means the temperature, or range, at which the solid turns liquid. `COc1cc(Nc2nc3ccnc(-c4ccc(S(N)(=O)=O)cc4)c3o2)cc(OC)c1OC` [Example 38, 4-[2-(3,4,5-Trimethoxy-phenylamino)-oxazolo[5,4-c]pyridin-4-yl]-benzenesulfonamide] showed a melting point of more than 280 °C. For the same compound, the IC50 in data set [1] is 310 nM. The IC50 in data set [2] was 450 nM.
